# Data published in PMC5991599, “Anti‐tumor efficacy of a novel CLK inhibitor via targeting RNA splicing and MYC‐dependent vulnerability” (EMBO Molecular Medicine, 2018).
# Columns and labels:
# [1] = target: T1, CLK3 (Homo sapiens, UniProt P49761); assay: Enzymatic assay; format: biochemical; details: read-out: IC50 (nmol/L) CLK3
# Description: (§1) Appendix Supplemental Methods
# [2] = target: DYRK1B (Homo sapiens, UniProt Q9Y463); assay: Enzymatic assay; format: biochemical; details: read-out: IC50 (nmol/L) DYRK1B
# Description: as §1
# [3] = target: T2, CLK1 (Homo sapiens, UniProt P49759); assay: Enzymatic assay; format: biochemical; details: read-out: IC50 (nmol/L) CLK1
# T2 sequence (P49759 whole entry): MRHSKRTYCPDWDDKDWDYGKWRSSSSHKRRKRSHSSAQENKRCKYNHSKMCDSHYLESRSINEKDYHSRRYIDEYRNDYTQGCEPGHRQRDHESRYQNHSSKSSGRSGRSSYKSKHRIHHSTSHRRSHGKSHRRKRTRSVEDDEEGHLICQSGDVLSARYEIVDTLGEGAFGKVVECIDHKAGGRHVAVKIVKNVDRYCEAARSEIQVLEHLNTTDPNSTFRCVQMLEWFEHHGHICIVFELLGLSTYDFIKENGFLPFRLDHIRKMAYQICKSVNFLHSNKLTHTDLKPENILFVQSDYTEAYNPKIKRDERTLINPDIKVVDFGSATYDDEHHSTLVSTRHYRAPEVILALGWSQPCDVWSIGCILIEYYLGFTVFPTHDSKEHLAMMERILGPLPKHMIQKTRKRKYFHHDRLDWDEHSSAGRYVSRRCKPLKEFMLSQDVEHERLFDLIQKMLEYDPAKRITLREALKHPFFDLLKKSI
# Description: as §1
# [4] = target: T3, CLK2 (Homo sapiens, UniProt P49760); assay: Enzymatic assay; format: biochemical; details: read-out: IC50 (nmol/L) CLK2
# T3 sequence (P49760 whole entry): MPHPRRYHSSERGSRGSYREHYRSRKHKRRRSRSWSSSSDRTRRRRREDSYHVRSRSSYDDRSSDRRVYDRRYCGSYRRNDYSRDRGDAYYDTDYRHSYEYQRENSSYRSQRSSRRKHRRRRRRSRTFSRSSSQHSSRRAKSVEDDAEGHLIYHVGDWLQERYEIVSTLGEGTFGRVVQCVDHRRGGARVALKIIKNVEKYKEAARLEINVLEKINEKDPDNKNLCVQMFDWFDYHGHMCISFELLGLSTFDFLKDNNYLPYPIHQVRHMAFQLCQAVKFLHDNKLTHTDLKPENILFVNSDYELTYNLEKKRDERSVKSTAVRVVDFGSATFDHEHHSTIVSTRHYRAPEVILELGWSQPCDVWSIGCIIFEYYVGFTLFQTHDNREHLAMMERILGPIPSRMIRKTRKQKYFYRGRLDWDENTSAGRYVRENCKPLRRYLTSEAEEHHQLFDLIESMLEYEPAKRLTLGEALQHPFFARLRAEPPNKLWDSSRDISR
# Description: as §1
# [5] = system: NCI-H1048 xenografts; assay: Efficacy study in NCI-H1048 xenograft model; format: in vivo, Balb/c nude mice; details: 50 mg/kg, twice weekly regimen
# Description: MDA‐MB‐468 (5 × 10^6), NCI‐H1048 (5 × 10^6), or MV‐4‐11 (2 × 10^6) cells in Matrigel were subcutaneously inoculated into the left flanks of Balb/c nude mice (7‐ to 8‐week‐old females). When xenografted tumors grew to a sufficient volume, the tumor diameter was measured and its volume was calculated as follows:
# Tumor volume=long diameter×short diameter×short diameter×(1/2)
# Mice having a tumor of size approximately 200 mm^3 were used in efficacy or in vivo pharmacodynamics studies. T‐025 was dissolved in 0.5% methylcellulose solution. For the efficacy study, after randomized grouping, mice were treated with T‐025 twice daily once or twice weekly for 2 or 3 weeks. The mouse tumor volume and body weight were measured every 2–3 days.
# [6] = target: HIPK2 (Homo sapiens, UniProt Q9H2X6); assay: Immunoblotting of pS46 p53, direct phosphorylation site of HIPK2, in cells; format: cell-based; details: up to 1000 nmol/L; immunoblot from Fig 2A samples (MDA-MB-468, 6 h)
# Description: EMBO Molecular Medicine - Peer Review Process File
# PRS6KB1 was observed by RNAi of CLK2 and T-025.
# It had already been reported that ASs induced by […]
# that T-025 and depletion of CLKs caused a similar splicing effect.
# Furthermore, T3, another CLK […]
# and increased MYC-dependent vulnerability (Fig EV4). […]
# phosphorylation, at a direct phosphorylation site of HIPK2, up to 1000 nmol/L (see below, from Fig.
# In quantifying the bands of pCLK2, the background of this immunoblotting around 50 kDa was relatively high and the band was shifted in the T-025 treated samples (below); thus, we could not […]
# BF is undefined and ∆PSI is not clearly defined. If ∆PSI is really "percentage splice-in", none of the effects is significant. The normalization of ∆PSI is unclear. In Figure 2E, the difference between […]
# According to the MISO software, the Bayer Factor (BF) represents the weight of the evidence in the data in favor of differential expression versus the weight of evidence not in favor. For example, a © European Molecular Biology Organization 13 […]
# [7] = target: T4, ERK8 (Homo sapiens, UniProt Q8TD08); assay: KINOMEScan-based kinase selectivity assay; format: binding
# T4 construct: purchased DiscoverX Corporation (Fremont, CA, USA)
# Description: (§2) The KINOMEScan‐based kinase selectivity assay was performed at the DiscoverX Corporation (Fremont, CA, USA). The panel of growth inhibition assay and subsequent bioinformatics analysis (Fig EV1) were performed at Eurofins Inc. (St. […] Details of the procedures of cell proliferation assay, caspase‐3/7 activity assay, immunoblotting, and immunohistochemistry are described in Appendix Supplementary Methods.
# [8] = target: T5, FLT3 D835H (Homo sapiens, UniProt P36888, D835H); assay: KINOMEScan-based kinase selectivity assay; format: binding
# T5 construct: purchased DiscoverX Corporation (Fremont, CA, USA)
# Description: as §2
# [9] = target: T6, CLK4 (Homo sapiens, UniProt Q9HAZ1); assay: KINOMEScan-based kinase selectivity assay; format: binding
# T6 construct: purchased DiscoverX Corporation (Fremont, CA, USA)
# Description: as §2
# [10] = target: T1, CLK3; assay: KINOMEScan-based kinase selectivity assay; format: binding
# Description: as §2
# [11] = target: T2, CLK1; assay: KINOMEScan-based kinase selectivity assay; format: binding
# Description: as §2
# [12] = target: T3, CLK2; assay: KINOMEScan-based kinase selectivity assay; format: binding
# Description: as §2
# [13] = target: T7, IRAK4 (Homo sapiens, UniProt Q9NWZ3); assay: KINOMEScan-based kinase selectivity assay; format: binding
# T7 construct: purchased DiscoverX Corporation (Fremont, CA, USA)
# T7 sequence (Q9NWZ3 whole entry): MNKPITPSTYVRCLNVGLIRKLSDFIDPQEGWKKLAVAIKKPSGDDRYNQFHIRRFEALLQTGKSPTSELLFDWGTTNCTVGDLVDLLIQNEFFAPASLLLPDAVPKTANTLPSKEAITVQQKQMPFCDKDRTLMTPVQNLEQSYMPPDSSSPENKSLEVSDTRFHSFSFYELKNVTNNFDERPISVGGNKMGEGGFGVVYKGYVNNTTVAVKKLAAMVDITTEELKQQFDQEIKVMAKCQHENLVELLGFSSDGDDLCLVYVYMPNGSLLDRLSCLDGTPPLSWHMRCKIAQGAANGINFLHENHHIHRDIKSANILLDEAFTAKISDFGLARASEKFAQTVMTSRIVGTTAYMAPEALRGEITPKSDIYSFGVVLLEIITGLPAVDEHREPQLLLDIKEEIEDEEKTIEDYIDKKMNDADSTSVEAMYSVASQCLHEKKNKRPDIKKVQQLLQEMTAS
# Description: as §2
# [14] = target: T8, DYRK1A (Homo sapiens, UniProt Q13627); assay: KINOMEScan-based kinase selectivity assay; format: binding
# T8 construct: purchased DiscoverX Corporation (Fremont, CA, USA)
# Description: as §2
# [15] = target: T9, HIPK1 (Homo sapiens, UniProt Q86Z02); assay: KINOMEScan-based kinase selectivity assay; format: binding
# T9 construct: purchased DiscoverX Corporation (Fremont, CA, USA)
# T9 sequence (Q86Z02 whole entry): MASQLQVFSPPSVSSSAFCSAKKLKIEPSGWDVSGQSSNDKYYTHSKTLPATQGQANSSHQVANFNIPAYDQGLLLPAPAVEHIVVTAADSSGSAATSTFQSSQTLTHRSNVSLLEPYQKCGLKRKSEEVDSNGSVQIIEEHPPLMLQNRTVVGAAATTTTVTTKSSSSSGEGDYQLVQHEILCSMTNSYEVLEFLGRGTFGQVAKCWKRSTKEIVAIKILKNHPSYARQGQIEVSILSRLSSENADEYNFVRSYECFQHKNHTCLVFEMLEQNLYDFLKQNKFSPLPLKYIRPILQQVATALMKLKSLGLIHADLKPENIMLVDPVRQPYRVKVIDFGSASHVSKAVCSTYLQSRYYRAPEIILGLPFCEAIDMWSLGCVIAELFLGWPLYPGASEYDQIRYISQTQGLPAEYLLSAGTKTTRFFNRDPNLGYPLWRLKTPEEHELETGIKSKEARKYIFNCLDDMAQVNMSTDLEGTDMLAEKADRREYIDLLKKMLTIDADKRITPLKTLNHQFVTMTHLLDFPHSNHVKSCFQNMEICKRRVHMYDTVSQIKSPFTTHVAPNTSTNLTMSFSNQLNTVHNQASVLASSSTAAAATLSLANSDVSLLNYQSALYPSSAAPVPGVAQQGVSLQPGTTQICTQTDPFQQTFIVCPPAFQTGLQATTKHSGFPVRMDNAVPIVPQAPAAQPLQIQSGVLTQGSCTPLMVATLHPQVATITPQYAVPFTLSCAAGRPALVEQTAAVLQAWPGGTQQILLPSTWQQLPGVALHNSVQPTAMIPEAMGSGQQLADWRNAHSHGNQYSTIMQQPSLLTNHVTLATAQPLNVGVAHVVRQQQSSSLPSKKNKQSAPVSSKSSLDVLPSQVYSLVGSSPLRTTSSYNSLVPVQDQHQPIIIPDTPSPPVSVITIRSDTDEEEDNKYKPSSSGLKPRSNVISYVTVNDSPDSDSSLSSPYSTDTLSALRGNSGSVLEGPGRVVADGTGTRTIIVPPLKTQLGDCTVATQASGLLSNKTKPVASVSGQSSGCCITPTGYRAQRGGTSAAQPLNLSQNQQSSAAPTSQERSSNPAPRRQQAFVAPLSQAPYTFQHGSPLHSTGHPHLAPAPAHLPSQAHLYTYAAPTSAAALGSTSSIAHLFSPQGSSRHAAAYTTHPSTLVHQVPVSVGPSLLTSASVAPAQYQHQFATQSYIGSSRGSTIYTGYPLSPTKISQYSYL
# Description: as §2
# [16] = target: T10, YSK4 (Homo sapiens, UniProt Q56UN5); assay: KINOMEScan-based kinase selectivity assay; format: binding
# T10 construct: purchased DiscoverX Corporation (Fremont, CA, USA)
# T10 sequence (Q56UN5 whole entry): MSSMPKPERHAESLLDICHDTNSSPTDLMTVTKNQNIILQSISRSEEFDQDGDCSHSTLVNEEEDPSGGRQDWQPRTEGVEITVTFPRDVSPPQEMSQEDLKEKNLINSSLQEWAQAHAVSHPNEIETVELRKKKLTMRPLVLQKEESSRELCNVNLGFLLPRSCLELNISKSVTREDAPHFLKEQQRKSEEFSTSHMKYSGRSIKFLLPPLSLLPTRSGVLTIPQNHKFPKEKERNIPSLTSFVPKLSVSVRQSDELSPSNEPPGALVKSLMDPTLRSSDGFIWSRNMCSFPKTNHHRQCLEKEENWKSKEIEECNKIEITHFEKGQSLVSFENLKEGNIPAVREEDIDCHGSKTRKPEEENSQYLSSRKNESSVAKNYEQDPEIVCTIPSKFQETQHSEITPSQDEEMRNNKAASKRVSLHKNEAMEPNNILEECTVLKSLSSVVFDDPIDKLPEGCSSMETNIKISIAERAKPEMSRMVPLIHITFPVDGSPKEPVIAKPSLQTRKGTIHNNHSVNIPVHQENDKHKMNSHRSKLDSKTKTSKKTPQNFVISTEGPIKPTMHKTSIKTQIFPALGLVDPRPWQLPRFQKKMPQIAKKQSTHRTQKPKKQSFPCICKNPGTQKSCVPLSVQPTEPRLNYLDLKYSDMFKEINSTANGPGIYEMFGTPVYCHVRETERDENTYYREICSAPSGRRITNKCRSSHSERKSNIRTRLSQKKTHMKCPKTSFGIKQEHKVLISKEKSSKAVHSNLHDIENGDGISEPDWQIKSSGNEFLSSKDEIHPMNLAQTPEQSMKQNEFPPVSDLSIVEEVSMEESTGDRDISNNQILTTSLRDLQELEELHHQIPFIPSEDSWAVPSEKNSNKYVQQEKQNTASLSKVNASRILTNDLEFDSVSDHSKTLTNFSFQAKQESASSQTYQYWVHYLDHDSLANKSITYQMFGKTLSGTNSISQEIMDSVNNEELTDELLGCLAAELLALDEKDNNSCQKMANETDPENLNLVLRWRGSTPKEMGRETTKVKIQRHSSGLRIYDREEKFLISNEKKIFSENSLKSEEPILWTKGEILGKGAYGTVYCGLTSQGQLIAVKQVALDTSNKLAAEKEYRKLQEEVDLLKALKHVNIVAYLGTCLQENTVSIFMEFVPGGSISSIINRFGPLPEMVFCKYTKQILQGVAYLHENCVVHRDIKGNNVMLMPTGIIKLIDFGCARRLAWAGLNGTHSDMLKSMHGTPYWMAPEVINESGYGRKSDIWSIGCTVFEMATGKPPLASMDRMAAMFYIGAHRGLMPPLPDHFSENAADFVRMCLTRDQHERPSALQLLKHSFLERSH
# Description: as §2
# [17] = target: T11, DYRK2 (Homo sapiens, UniProt Q92630); assay: KINOMEScan-based kinase selectivity assay; format: binding
# T11 construct: purchased DiscoverX Corporation (Fremont, CA, USA)
# T11 sequence (Q92630 whole entry): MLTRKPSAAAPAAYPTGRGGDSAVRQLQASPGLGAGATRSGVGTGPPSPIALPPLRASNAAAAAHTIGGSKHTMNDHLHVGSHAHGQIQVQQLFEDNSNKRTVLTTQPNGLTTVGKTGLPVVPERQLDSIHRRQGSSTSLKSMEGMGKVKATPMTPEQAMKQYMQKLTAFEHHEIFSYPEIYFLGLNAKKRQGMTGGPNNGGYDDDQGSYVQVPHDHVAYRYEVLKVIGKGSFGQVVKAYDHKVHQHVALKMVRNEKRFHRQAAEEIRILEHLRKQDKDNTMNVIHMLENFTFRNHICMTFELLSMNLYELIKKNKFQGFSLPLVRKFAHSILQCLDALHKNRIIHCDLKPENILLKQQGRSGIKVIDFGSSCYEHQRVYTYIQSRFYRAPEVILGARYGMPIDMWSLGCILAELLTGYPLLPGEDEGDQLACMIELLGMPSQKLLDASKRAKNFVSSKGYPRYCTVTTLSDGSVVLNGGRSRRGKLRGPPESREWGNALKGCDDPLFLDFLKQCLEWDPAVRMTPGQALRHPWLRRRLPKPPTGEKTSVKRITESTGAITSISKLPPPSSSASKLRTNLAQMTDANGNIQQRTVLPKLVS
# Description: as §2
# T1 sequence (P49761 whole entry): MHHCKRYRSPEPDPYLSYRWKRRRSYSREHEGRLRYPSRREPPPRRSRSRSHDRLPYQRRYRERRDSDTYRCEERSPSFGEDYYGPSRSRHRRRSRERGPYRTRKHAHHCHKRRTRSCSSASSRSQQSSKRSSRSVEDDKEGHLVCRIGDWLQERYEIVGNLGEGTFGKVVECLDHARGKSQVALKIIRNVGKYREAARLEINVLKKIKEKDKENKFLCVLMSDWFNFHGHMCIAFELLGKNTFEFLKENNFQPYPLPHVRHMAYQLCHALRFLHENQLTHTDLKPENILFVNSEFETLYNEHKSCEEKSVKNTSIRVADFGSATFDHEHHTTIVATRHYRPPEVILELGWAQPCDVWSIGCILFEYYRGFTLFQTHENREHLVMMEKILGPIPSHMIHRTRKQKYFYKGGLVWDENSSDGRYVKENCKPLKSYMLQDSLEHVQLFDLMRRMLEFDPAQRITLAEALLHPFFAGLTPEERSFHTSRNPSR
compound,measurement,setting,value
"CNc1nc(NCc2ncccn2)c2c(-c3ccc4ncccc4c3)c[nH]c2n1 [T-025, N ^2‐methyl‐N ^4‐[pyrimidin‐2‐ylmethyl]‐5‐[quinolin‐6‐yl]‐7H‐pyrrolo[2,3‐d]pyrimidine‐2,4‐diamine]",IC50,[1],14 nmol/L
same,IC50,[2],1.5 nmol/L
same,IC50,[3],0.93 nmol/L
same,IC50,[4],1 nmol/L
same,"anti-tumor efficacy, tumor volume",[5],exhibited in vivo anti‐tumor efficacy
same,body weight loss,[5],no significant body weight loss
same,inhibition of HIPK2 in cells (pS46 p53 phosphorylation),[6],did not inhibit HIPK2
same,Kd,[7],140 nM
same,inhibition at 0.3 µM,"[7]; 300 nmol/L, n = 2",94.8%
same,Kd,[8],94 nM
same,inhibition at 0.3 µM,"[8]; 300 nmol/L, n = 2",98.8%
same,Kd,[9],0.61 nM
same,inhibition at 0.3 µM,"[9]; 300 nmol/L, n = 2",100%
same,Kd,[10],6.5 nM
same,inhibition at 0.3 µM,"[10]; 300 nmol/L, n = 2",90.2%
same,Kd,[11],4.8 nM
same,inhibition at 0.3 µM,"[11]; 300 nmol/L, n = 2",99.4%
same,Kd,[12],0.096 nM
same,inhibition at 0.3 µM,"[12]; 300 nmol/L, n = 2",93.1%
same,Kd,[13],54 nM
same,inhibition at 0.3 µM,"[13]; 300 nmol/L, n = 2",94.8%
same,Kd,[14],0.074 nM
same,inhibition at 0.3 µM,"[14]; 300 nmol/L, n = 2",100%
same,Kd,[15],55 nM
same,inhibition at 0.3 µM,"[15]; 300 nmol/L, n = 2",94.6%
same,Kd,[16],33 nM
same,inhibition at 0.3 µM,"[16]; 300 nmol/L, n = 2",97.5%
same,Kd,[17],32 nM
same,inhibition at 0.3 µM,"[17]; 300 nmol/L, n = 2",98.6%
